Measurements reported in patent publication US10584115B2, “Substituted pyridine and pyrazine BMI-1 inhibitors” (PTC Therapeutics, Inc., priority 2013, dated 2020).
Counter-ions that a name gives are not always drawn.

test system: Bmi-1 protein; assay: Sandwich ELISA Assay (Bmi-1 protein level in HT-1080 cells after compound treatment); assay type: cell-based; details: Table 1, Bmi-1 sandwich ELISA, read-out: ELISA EC50 value for Bmi-1 protein
Procedure: Cell Seeding and Compound Treatment (Day 1):
HT-1080 cells were seeded at 8000 cells/well (50 μL) in 96-well tissue culture plates. After the cells became adherent (3-4 hours), 2× diluted stocks of test compounds in 50 μL DMEM containing 1% DMSO (final DMSO concentration was 0.5%) were added and the plates were incubated at 37° C. under 5% CO2 for 40-48 hours.
ELISA Plate First Antibody Preparation (Day 2):
The First Antibody (Millipore Mouse, monoclonal to mouse Bmi-1, clone F6, catalog #05-637) diluted to […] in PBS was added (100 μL) to each well of a Nunc MaxiSorp 96-well ELISA plate. The plate was covered with a plate seal and allowed to stand overnight.
Cell Lysate Preparation (Day 3):
Fresh Lysis buffer (1×) was prepared on the day of the assay as follows: 1 mM EDTA, 150 mM NaCl, 0.5% Triton-X 100, 10 mM NaF, 20 mM B-Glycerophosphate, 1 mM DTT (in PBS, pH 7.2-7.4) and HALT protease inhibitor cocktail (lx) (Pierce #78410).
A standard curve was prepared at the following Bmi-1 concentrations: 8000, 4000, 2000, 1000, 500, 250, 125 and 0 pg/mL. The Bmi-1 Recombinant Protein Standard (Novus Biologicals PCGF4 Recombinant Protein (P01), catalog # H00000648-P01) used to prepare the standard curve was stored at −80° C. On first thaw, the Recombinant Protein Standard was diluted to 10 μg/L in Blocking Buffer (1% BSA in PBS; BSA: Fisher Scientific Catalog #1600-100). Aliquots were taken and refrozen at −80° C. The aliquots may be kept at 4° C. and reused after first thaw, but only within 1-2 weeks. The Recombinant Protein Standard contains a GST-fusion tag that appears at approximately 70 Kda on Western Blot.
The prepared ELISA plate was washed 3× with Wash Buffer (0.05% Tween-20 in PBS). The final wash was removed from the plate and the plate was blotted dry. Blocking Buffer (300 μL) (1% BSA in PBS) was added to each well. The plate was covered with a plate seal and incubated at room temperature for 1 hour. The blocked plate was washed 3× with Wash Buffer, then the final wash was removed and the plate was blotted dry. The previously prepared samples and standards were added ([…]) and the plate was covered with a plate seal and incubated at 4° C. overnight.
The prepared ELISA plate was removed from incubation and allowed to stand at room temperature for 30 minutes, then washed and blotted dry. The Second Antibody (Cell Signaling Rabbit anti-Bmi-1, Cat #2830) diluted to 1:600 in Blocking Buffer was added (100 μL) to each well, except as needed for background control wells. The plate was covered with a plate seal and incubated for 1.5 hrs at room temperature.
The ELISA plate was washed and blotted dry as previously described. The Third Antibody (Cell Signaling HRP conjugated anti-rabbit IgG (CellSignaling, Cat #:7074) diluted to 1:300 in Blocking Buffer was added (100 μL) to each well, except as needed for background control wells. The plate was incubated for 1 hr at room temperature.
The plate was washed and blotted dry, then a previously prepared TMB substrate (TMB substrate kit, Pierce catalog #34021) (prepared by mixing kit reagents 1:1) (100 μL) was added per well. The plate was incubated for 20-30 minutes at room temperature in the dark, then Stop Solution (2 M sulfuric acid in water) (50 μL) was added per well. The plates were read at OD450 (experimental) and OD570 (reference).

| SMILES | EC50 |
| --- | --- |
| Cc1nc2ccccc2n1-c1cncc(Nc2ccc(CN)cc2)n1 [154a, N-[4-(aminomethyl)phenyl]-6-(2-methyl-1H-benzimidazol-1-yl)pyrazin-2-amine trifluoroacetate] | 10 to 100 nM |
| Nc1cc(Nc2ccc(C(F)(F)F)cc2)nc(-c2c(CO)nc3ccccn23)c1 [289a, [3-(4-amino-6-{[4-(trifluoromethyl)phenyl]amino}pyridin-2-yl)imidazo[1,2-a]pyridin-2-yl)methanol hydrochloride (1:2)] | 10 to 100 nM |
| COc1ccc(Nc2cccc(-c3c(C(F)(F)F)nc4ccccn34)n2)cc1Cl [Cpd 3, N-(3-chloro-4-methoxyphenyl)-6-[2-(trifluoromethyl)imidazo[1,2-a]pyridin-3-yl]pyridin-2-amine] | 1 to 10 nM |
| COc1ccc(Nc2cccc(-c3c(C(F)(F)F)nc4ccccn34)n2)cc1 [Cpd 4, N-(4-methoxyphenyl)-6-[2-(trifluoromethyl)imidazo[1,2-a]pyridin-3-yl]pyridin-2-amine] | 1 to 10 nM |
| FC(F)(F)c1ccc(Nc2cncc(-c3c(C(F)(F)F)nc4ccccn34)n2)cc1 [Cpd 6, 6-[2-(trifluoromethyl)imidazo[1,2-a]pyridin-3-yl]-N-[4-(trifluoromethyl)phenyl]pyrazin-2-amine] | 1 to 10 nM |
| COc1ccc(Nc2cncc(-c3c(C(F)(F)F)nc4ccccn34)n2)cc1F [Cpd 7, N-(3-fluoro-4-methoxyphenyl)-6-[2-(trifluoromethyl)imidazo[1,2-a]pyridin-3-yl]pyrazin-2-amine] | < 1 nM |
| COc1ccc(Nc2cccc(-c3c(C(F)(F)F)nc4ccccn34)n2)cc1F [Cpd 8, N-(3-fluoro-4-methoxyphenyl)-6-[2-(trifluoromethyl)imidazo[1,2-a]pyridin-3-yl]pyridin-2-amine] | 1 to 10 nM |
| Fc1ccc(Nc2cncc(-c3c(C(F)(F)F)nc4ccccn34)n2)cc1 [Cpd 9, N-(4-fluorophenyl)-6-[2-(trifluoromethyl)imidazo[1,2-a]pyridin-3-yl]pyrazin-2-amine] | 100 to 3000 nM |

Further lines, results first:

| EC50 | SMILES |
| --- | --- |
| 1 to 10 nM | FC(F)(F)c1nc2ccccn2c1-c1cncc(Nc2ccc(Cl)cc2)n1 [Cpd 10, N-(4-chlorophenyl)-6-[2-(trifluoromethyl)imidazo[1,2-a]pyridin-3-yl]pyrazin-2-amine] |
| 10 to 100 nM | FC(F)(F)Oc1ccc(Nc2cncc(-c3c(C(F)(F)F)nc4ccccn34)n2)cc1 [Cpd 11, N-[4-(trifluoromethoxy)phenyl]-6-[2-(trifluoromethyl)imidazo[1,2-a]pyridin-3-yl]pyrazin-2-amine] |
| 10 to 100 nM | FC(F)(F)Oc1ccc(Nc2cccc(-c3c(C(F)(F)F)nc4ccccn34)n2)cc1 [Cpd 16, N-[4-(trifluoromethoxy)phenyl]-6-[2-(trifluoromethyl)imidazo[1,2-a]pyridin-3-yl]pyridin-2-amine] |
| 1 to 10 nM | FC(F)(F)c1nc2ccccn2c1-c1cccc(Nc2ccc(Cl)cc2)n1 [Cpd 17, N-(4-chlorophenyl)-6-[2-(trifluoromethyl)imidazo[1,2-a]pyridin-3-yl]pyridin-2-amine] |
| 1 to 10 nM | COc1ccc(Nc2cncc(-c3c(C(F)(F)F)nc4ccccn34)n2)cc1Cl [Cpd 22, N-(3-chloro-4-methoxyphenyl)-6-[2-(trifluoromethyl)imidazo[1,2-a]pyridin-3-yl]pyrazin-2-amine] |
| 10 to 100 nM | N#Cc1ccc(Nc2cncc(-c3c(C(F)(F)F)nc4ccccn34)n2)cc1 [Cpd 23] |
| < 1 nM | FC(F)Oc1ccc(Nc2cncc(-c3c(C(F)(F)F)nc4ccccn34)n2)cc1 [Cpd 24, N-[4-(difluoromethoxy)phenyl]-6-[2-(trifluoromethyl)imidazo[1,2-a]pyridin-3-yl]pyrazin-2-amine] |

same assay, conditions: read-out: ELISA EC50 value for Bmi-1 protein, Table 1, Bmi-1 sandwich ELISA

| SMILES | EC50 |
| --- | --- |
| FC(F)(F)c1ccc(Nc2cccc(-c3c(C(F)(F)F)nc4ccccn34)n2)cc1 [Cpd 18, 6-[2-(trifluoromethyl)imidazo[1,2-a]pyridin-3-yl]-N-[4-(trifluoromethyl)phenyl]pyridin-2-amine] | 1 to 10 nM |
